11 molecules from patent publication US10752609B2, “GSK-3 inhibitors” (priority 2016, dated 2020) can be followed below.

Broadly, the IC50 is the concentration at which inhibition is half-maximal.

The target of assay [1] is GSK3β (Homo sapiens, UniProt P49841). Nature of the assay: GSK3β kinase assay (Caliper LabChip3000 mobility shift, fluoresceinated peptide substrate). The note with it: 250 pM enzyme, 20 uM ATP, 1.5 uM peptide, 20 hours room temperature; first value of cell GSK3β/GSK3α; read-out: GSK3β (nM), IC50. The assay is classed as biochemical.
Sequence of GSK3β (P49841 whole entry, species assumed): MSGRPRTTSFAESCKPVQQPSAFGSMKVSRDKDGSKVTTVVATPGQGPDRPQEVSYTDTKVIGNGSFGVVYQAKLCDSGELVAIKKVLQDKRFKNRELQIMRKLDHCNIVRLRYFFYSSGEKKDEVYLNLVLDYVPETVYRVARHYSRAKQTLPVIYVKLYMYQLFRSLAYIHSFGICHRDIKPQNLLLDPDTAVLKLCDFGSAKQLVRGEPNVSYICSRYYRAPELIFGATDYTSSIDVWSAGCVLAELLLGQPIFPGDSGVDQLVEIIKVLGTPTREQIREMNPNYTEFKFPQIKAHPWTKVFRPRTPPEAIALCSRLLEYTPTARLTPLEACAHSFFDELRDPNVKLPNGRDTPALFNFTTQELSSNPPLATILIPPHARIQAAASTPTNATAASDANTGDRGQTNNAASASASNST
Procedure: (§1) The kinase assay was performed in V-bottom 384-well plates. […] The reaction was incubated at room temperature for 20 hours and terminated by adding 45 μl of 35 mM EDTA to each sample. The reaction mixture was analyzed on the Caliper LabChip3000 (Caliper, Hopkinton, Mass.) by electrophoretic separation of the unphosphorylated substrate and phosphorylated product. […] Compounds were dissolved at 10 mM in dimethylsulfoxide (DMSO) and evaluated at eleven concentrations. IC50 values were derived by non-linear regression analysis.
Assay [2] relates to pTau. Nature of the assay: pTau assay (no method described). The format is cell-based.
For assay [3], the target named is GSK3α (Homo sapiens, UniProt P49840). Kind of assay: GSK3α kinase assay (Caliper LabChip3000 mobility shift, fluoresceinated peptide substrate).
Sequence of GSK3α (P49840 whole entry, species assumed): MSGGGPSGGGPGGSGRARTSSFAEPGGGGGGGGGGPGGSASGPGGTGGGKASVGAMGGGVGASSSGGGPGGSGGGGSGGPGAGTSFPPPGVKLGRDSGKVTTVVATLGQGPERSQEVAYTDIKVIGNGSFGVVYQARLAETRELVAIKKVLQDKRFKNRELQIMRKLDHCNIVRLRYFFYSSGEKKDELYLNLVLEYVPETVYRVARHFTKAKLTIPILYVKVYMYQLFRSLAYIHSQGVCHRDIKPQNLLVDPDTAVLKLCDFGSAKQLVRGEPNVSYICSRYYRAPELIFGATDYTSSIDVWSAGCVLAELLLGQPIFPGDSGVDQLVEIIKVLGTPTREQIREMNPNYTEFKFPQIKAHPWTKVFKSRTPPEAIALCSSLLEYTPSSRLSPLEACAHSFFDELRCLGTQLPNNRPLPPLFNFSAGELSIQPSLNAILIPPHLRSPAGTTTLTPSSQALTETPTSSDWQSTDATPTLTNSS
Procedure: as §1

Structures are written as SMILES.

For `O=C(Nc1cnccc1OCC(F)(F)F)c1ccnc(Nc2ccc(F)cc2F)n1` [Example 113, 2-((2,4-Difluorophenyl)amino)-N-(4-(2,2,2-trifluoroethoxy)pyridin-3-yl)pyrimidine-4-carboxamide], the half-inhibitory concentration (IC50) is 5.3 nM in assay [1], 300 nM in assay [2] and 4 nM in assay [3].
Regarding `O=C(Nc1cnc(F)cc1N1CCC(F)(F)CC1)c1ccnc(NC2CCOCC2)n1` [Example 184, N-(4-(4,4-Difluoropiperidin-1-yl)-6-fluoropyridin-3-yl)-2-((tetrahydro-2H-pyran-4-yl)amino)pyrimidine-4-carboxamide], the IC50 in assay [1] amounted to 11 nM; in assay [2] it was 400 nM; in assay [3], 6 nM.
On the same counts, the results for `O=C(Nc1cnccc1OCC(F)(F)F)c1ccnc(Nc2ccc(C(F)(F)F)cc2)n1` [Example 58, N-(4-(2,2,2-Trifluoroethoxy)pyridin-3-yl)-2-((4-(trifluoromethyl)phenyl)amino)pyrimidine-4-carboxamide] are 0.3 nM, 10 nM and 0.18 nM.
On the same counts, the results for `CC(C)C(C)Nc1nccc(C(=O)Nc2cnccc2OCC(F)(F)F)n1` (stereo not drawn) [Example 125, 2-((3-Methylbutan-2-yl)amino)-N-(4-(2,2,2-trifluoroethoxy)pyridin-3-yl)pyrimidine-4-carboxamide] are 1.1 nM, 55 nM and 0.84 nM.
On the same counts, the results for `COc1cccc(C2CC2CNc2nccc(C(=O)Nc3cncnc3)n2)c1` (stereo not drawn) [Example 199, 2-(((2-(3-Methoxyphenyl)cyclopropyl)methyl)amino)-N-(pyrimidin-5-yl)pyrimidine-4-carboxamide] are 40 nM, 6100 nM and 33 nM.
As for `CN1CCC(Nc2nccc(C(=O)Nc3cnccc3-c3ccccc3F)n2)CC1` [Example 162, N-(4-(2-Fluorophenyl)pyridin-3-yl)-2-((1-methylpiperidin-4-yl)amino)pyrimidine-4-carboxamide], the results for the IC50 in assay [1], in assay [2] and in assay [3] were 32 nM, 2200 nM and 39 nM, respectively.
`O=C(Nc1cnc(F)cc1N1CCC(F)(F)CC1)c1ccnc(NCC2CC2)n1` [Example 179, 2-((Cyclopropylmethyl)amino)-N-(4-(4,4-difluoropiperidin-1-yl)-6-fluoropyridin-3-yl)pyrimidine-4-carboxamide]: the IC50 came to 0.7 nM in assay [1], 94 nM in assay [2] and 0.61 nM in assay [3].
On the same counts, the results for `COc1ccc(Nc2nccc(C(=O)Nc3cnccc3OCC(F)(F)F)n2)cc1F` [Example 62, 2-((3-Fluoro-4-methoxyphenyl)amino)-N-(4-(2,2,2-trifluoroethoxy)pyridin-3-yl)pyrimidine-4-carboxamide] are 0.08 nM, 230 nM and 0.09 nM.
Consider `O=C(Nc1cnccc1OCC(F)(F)F)c1ccnc(NCC2CC2)n1` [Example 118, 2-((Cyclopropylmethyl)amino)-N-(4-(2,2,2-trifluoroethoxy)pyridin-3-yl)pyrimidine-4-carboxamide], for which the values for the IC50 in assay [1], in assay [2] and in assay [3] were 0.3 nM, 14 nM and 0.28 nM, respectively.
Turning to `O=C(Nc1cnc(F)cc1N1CCC(F)(F)CC1)c1ccnc(Nc2ccc(OC(F)F)cc2)n1` [Example 181, 2-((4-(Difluoromethoxy)phenyl)amino)-N-(4-(4,4-difluoropiperidin-1-yl)-6-fluoropyridin-3-yl)pyrimidine-4-carboxamide], the half-inhibitory concentration (IC50) worked out at 1.2 nM in assay [1], 77 nM in assay [2] and 1.6 nM in assay [3].
In the case of `O=C(Nc1cnccc1-c1ccccc1)c1ccnc(Nc2ccc(OC(F)F)nc2)n1` [Example 38, 2-((6-(Difluoromethoxy)pyridin-3-yl)amino)-N-(4-phenylpyridin-3-yl)pyrimidine-4-carboxamide], the IC50 in assay [1] came out at 3.1 nM; in assay [2], 130 nM; in assay [3], 1.1 nM.
